According to patent US11584733B2, “Selective histone deacetylase inhibitors for the treatment of human disease” (Shuttle Pharmaceuticals, Inc., priority 2017, dated 2023):
Where “and” joins values, the source holds several entries; their conditions need not be identical. Equal values may be shown once. Entries after “also recorded” stand apart in the source; their conditions may differ.

Biological target: T1, Human recombinant HDAC6 (Homo sapiens, UniProt Q9UBN7)
T1 sequence (Q9UBN7 1-1215): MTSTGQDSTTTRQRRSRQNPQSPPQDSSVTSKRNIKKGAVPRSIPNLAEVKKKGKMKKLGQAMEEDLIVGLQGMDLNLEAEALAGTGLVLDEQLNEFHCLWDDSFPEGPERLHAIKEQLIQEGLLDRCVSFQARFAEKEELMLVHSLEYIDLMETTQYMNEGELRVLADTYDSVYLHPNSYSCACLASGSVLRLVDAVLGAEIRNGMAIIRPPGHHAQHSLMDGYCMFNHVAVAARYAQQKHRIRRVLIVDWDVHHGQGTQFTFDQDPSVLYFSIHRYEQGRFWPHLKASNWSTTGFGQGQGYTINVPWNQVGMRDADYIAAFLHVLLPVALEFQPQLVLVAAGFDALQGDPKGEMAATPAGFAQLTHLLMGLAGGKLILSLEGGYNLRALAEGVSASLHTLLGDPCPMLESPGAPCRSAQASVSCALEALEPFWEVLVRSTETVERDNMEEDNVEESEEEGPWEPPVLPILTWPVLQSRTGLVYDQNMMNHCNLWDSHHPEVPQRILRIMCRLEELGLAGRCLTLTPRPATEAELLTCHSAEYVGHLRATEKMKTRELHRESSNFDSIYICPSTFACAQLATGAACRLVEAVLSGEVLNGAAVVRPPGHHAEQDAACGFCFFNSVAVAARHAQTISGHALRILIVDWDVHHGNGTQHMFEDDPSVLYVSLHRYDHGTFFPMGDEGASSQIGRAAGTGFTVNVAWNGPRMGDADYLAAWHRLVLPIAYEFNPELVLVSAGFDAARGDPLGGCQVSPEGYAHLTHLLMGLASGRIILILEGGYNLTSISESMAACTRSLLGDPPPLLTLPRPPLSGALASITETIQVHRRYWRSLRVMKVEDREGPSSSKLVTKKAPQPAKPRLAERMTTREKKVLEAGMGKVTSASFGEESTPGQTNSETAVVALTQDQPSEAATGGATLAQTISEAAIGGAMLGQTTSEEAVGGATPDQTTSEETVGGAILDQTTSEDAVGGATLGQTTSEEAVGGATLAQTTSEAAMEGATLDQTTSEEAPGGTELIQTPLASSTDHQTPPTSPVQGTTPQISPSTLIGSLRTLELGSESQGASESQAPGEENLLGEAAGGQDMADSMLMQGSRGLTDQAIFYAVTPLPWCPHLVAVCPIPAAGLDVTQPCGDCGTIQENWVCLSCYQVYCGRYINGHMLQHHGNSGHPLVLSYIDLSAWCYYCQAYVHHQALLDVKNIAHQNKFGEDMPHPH
Experiment: HDAC isomer assay, Fluor-de-Lys, HDAC6
Type: biochemical
Details: for EC50: Example 4, FIGS. 5, 6 and 8, read-out: EC50 against HDAC6; for greater potency for HDAC6 as compared to HDAC1: FIG. 14; for selectivity for HDAC6 as compared to pan-HDACs (and HDAC1, HDAC3), in words: FIGS. 1, 7, 8, 18
Method: The HDAC isomer (HDAC1, 3, and 6) assays were performed as follows:
Materials: Human recombinant HDAC isomer (HDAC1, HDAC3, and HDAC6); Fluor-de-Lys HDAC substrates; 360 nm excitation 460 nm emission Plate Reader; Disposable pipettes; Pipet-aid; Pipette tips; Micro-pipetter; DMSO; Sterile micro-tubes and conical tubes; and Micro-centrifuge.
Test compounds and control preparation: All test compounds' stock solutions were made in 100% DMSO. Test compound dilutions were made in HDAC Assay buffer with a final concentration of DMSO less than or equal to 1%. Vehicle control was HDAC Assay buffer with 1% DMSO.
The reagents for the assay were prepared as follows:
1. All kit components were defrosted and these, and all dilutions described below, were kept on ice until use.
2. A sufficient amount of HDAC source diluted in Assay Buffer (BML-KI143) was prepared to provide for the assays that were performed (# of wells×15 μl). A 30-fold dilution of the HeLa Extract means that 15p L contains 0.5 μl of the undiluted Extract, an appropriate amount to use per well.
3. Dilution(s) of SAHA and/or Test Inhibitors were prepared in Assay Buffer (BML-KI143). Since 10 μl were used per well, and since the final volume of the HDAC reaction was 50p, these inhibitor dilutions were 5× their final concentration.
4. Dilution(s) of the Fluor de Lys® Substrate (BML-KI104; 50 mM) were prepared in Assay Buffer (BML-KI143) that were 2× the desired final concentration(s). For inhibitor screening, substrate concentrations at or below the Km are recommended. Twenty-five μL were used per well. […] Rapid mixing and dilution into room temperature buffer helped to prevent precipitation at high substrate concentration.
5. Shortly before use (<30 min.), sufficient Fluor de Lys® Developer was prepared for the assays to be performed (50 μl per well). First, the Fluor de Lys® Developer Concentrate was diluted 20-fold (e.g. 50 μl plus 950 μl Assay Buffer) in cold Assay Buffer (BML-K1143). […] The addition of SAHA to the Developer insures that HDAC activity stops when the Developer is added. The Developer was kept on ice until use.
1. Assay buffer, diluted trichostatin A or test inhibitor was added to appropriate wells of the microtiter plate.
2. Diluted HeLa extract or other HDAC sample was added to all wells except those that are to be “No Enzyme Controls.”
3. Diluted Fluor de Lys® Substrate and the samples in the microtiter plate were allowed to equilibrate to assay temperature (e.g. 25 or 37° C.).
4. HDAC reactions were initiated by adding diluted substrate (25 μl) to each well and mixing thoroughly.
5. HDAC reactions were allowed to proceed for desired length of time and then stop them by addition of Fluor de Lys® Developer (50 μl). The plates were incubated at room temperature (25° C.) for 10-15 min.
6. Samples were read in a microtiter-plate reading fluorimeter capable of excitation at a wavelength in the range 350-380 nm and detection of emitted light in the range 440-460 nm.

O=C(CCCCCCC(=O)NC1CCC(=O)NC1=O)NO (stereo not shown) [SP-2-59, N^1-(2,6-dioxopiperidin-3-yl)-N^8-hydroxyoctanediamide]
EC50: 0.052 µM and 0.068 µM | greater potency for HDAC6 as compared to HDAC1: 83 fold | selectivity for HDAC6 as compared to pan-HDACs (and HDAC1, HDAC3), in words: substantial preference and selectivity for HDAC6

O=C(CCCCCCC(=O)Nc1cccc2c1CN(C1CCC(=O)NC1=O)C2=O)NO (stereo not shown) [SP-2-93, N^1-(2-(2,6-dioxopiperidin-3-yl)-1-oxoisoindolin-4-yl)-N^8-hydroxyoctanediamide]
EC50: 0.00619 µM | more selective for HDAC6 as compared to HDAC1 (Example 6, FIG. 18): about 26 times | more selective for HDAC6 as compared to HDAC3 (Example 6, FIG. 18): about 51 times | IC50 (Example 6, FIG. 18, 2 mg/mL formulation in 5% DMSO/40% PEG 400/55% PBS, read-out: IC50 against HDAC6 protein): 0.06 µM | greater potency for HDAC6 as compared to HDAC1: 258 fold | selectivity for HDAC6 as compared to pan-HDACs (and HDAC1, HDAC3), in words: substantial preference and selectivity for HDAC6; also recorded: highly selective for HDAC 6 | selectivity for HDAC6 as compared to pan-HDACs (and HDAC1, HDAC3), in words (listed as N^1-(2-(2,6-dioxopiperidin-3-yl)-1-oxoisoindolin-4-yl)-N^8-hydroxyoctanediamide): surprising selective for HDAC6
